The values that follow are results of earlier work, collected in patent US20080070828A1, “Ace-Inhibitory Whey Hydrolysates” (FRIESLAND BRANDS B.V., priority 2004, published 2008).

As usually defined, the pIC50 is the IC50 on a negative log10 scale, so that one unit is a factor of ten.

pIC50: −log10 of the molar value.

Data set [1] concerns ACE. To be noted: for Literature IC50 / pIC50: ACE-inhibitory peptides from BLG; for pIC50: read-out: Literature IC50.
In data set [2] the test system is hypertensive rats. As to conditions: among 9 identified peptide sequences.

For the substance Ile-Pro-Ala [f(78-80), BLG tripeptide], in data set [1], the “Literature IC50” value was 42 µg/mL and the negative-log IC50 (pIC50) was 3.85. Also, in data set [2], the antihypertensive activity entry is given as “strongest antihypertensive activity”.
For “f(9-14): ACE-inhibitory peptide from BLG (GLDIQK; UniProt P02754 25-30, looked up, fragment)”, in data set [1], the “Literature IC50” value is 390 µg/mL and the pIC50 is 3.24.
Turning to “f(15-20): ACE-inhibitory peptide from BLG (VAGTWY; UniProt P02754 31-36, looked up, fragment)”, in data set [1], the “Literature IC50” value is 1170 µg/mL and the pIC50 is 2.77.
With “f(22-25): ACE-inhibitory peptide from BLG (LAMA; UniProt P02754 38-41, looked up, fragment)”, in data set [1], the “Literature IC50” value was 430 µg/mL and the negative logarithm of the IC50 (pIC50) was 2.97.
As for “f(32-40): ACE-inhibitory peptide from BLG (LDAQSAPLR; UniProt P02754 48-56, looked up, fragment)”, in data set [1], the “Literature IC50” value is 616 µg/mL and the pIC50 was 3.20.
In the case of “f(81-83): ACE-inhibitory peptide from BLG (VFK; UniProt P02754 97-99, looked up, fragment)”, in data set [1], the “Literature IC50” value was 404 µg/mL and the pIC50 was 2.99.
Turning to “f(94-100): ACE-inhibitory peptide from BLG (VLDTDYK; UniProt P02754 110-116, looked up, fragment)”, in data set [1], the “Literature IC50” value is 807 µg/mL and the pIC50 was 3.02.
For “f(102-105): ACE-inhibitory peptide from BLG (YLLF; UniProt P02754 118-121, looked up, fragment)”, in data set [1], the “Literature IC50” value is 95 µg/mL and the pIC50 was 3.76.
Regarding “f(106-111): ACE-inhibitory peptide from BLG (CMENSA; UniProt P02754 122-127, looked up, fragment)”, in data set [1], the “Literature IC50” value was 515 µg/mL and the pIC50 was 3.10.
Take “f(142-146): ACE-inhibitory peptide from BLG (ALPMH; UniProt P02754 158-162, looked up, fragment)”: in data set [1], the “Literature IC50” value is 296 µg/mL and the pIC50 is 3.28.
Regarding “f(142-148): peptide isolated from a trypsin hydrolysate of bovine BLG (ALPMHIR; UniProt P02754 158-164, looked up, fragment)”, the pIC50 in data set [1] was 4.37. Also, the “IC50 reported in WO 01/85984” value in data set [1] (single hydrolysis step with trypsin or bacterial protease, f142-148 as reference) was 40 µg/mL.
As for “f(146-149): ACE-inhibitory peptide from BLG (HIRL; UniProt P02754 162-165, looked up, fragment)”, in data set [1], the “Literature IC50” value was 620 µg/mL and the pIC50 is 2.94.
